Laboratory results reported in patent US20240041042A1, “1-(PYRIDYL)-5-AZINYLPYRAZOLE DERIVATIVES, AND THEIR USE FOR CONTROL OF UNDESIRED PLANT GROWTH” (Bayer Aktiengesellschaft, priority 2020, published 2024).

What was measured:
Type in all cases: in vivo
[1] = tested on: Verconica persica (VERPE); test: Post-emergence herbicidal action against VERPE
How it was run: (§1)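 Greenhouse plants sprayed at the one-leaf stage, 2–3 weeks after sowing, with WP or EC formulations plus 0.5% additive at 600 l/ha water. Activity rated visually after about 3 weeks versus untreated controls (100% = dead, 0% = like control), at 320 g/ha or lower.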

[2] = tested on: Polygonum convolvulus (POLCO); test: Pre-emergence herbicidal action against POLCO
How it was run: (§2)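 Greenhouse pot trial: seeds sown, soil-covered, sprayed before emergence with compound in water (0.5% additive; 600 l/ha; ≤320 g/ha). Scoring visual, ~3 weeks, 0–100% scale vs untreated.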

[3] = tested on: Amaranthus retroflexus (AMARE); test: Post-emergence herbicidal action against AMARE
How it was run: as §1

[4] = tested on: Matricaria inodora (MATIN); test: Post-emergence herbicidal action against MATIN
How it was run: as §1

[5] = tested on: Verconica persica (VERPE); test: Pre-emergence herbicidal action against VERPE
How it was run: as §2

Setaria viridis (SETVI) = test: Post-emergence herbicidal action against SETVI
How it was run: as §1

[6] = tested on: Alopecurus myosuroides (ALOMY); test: Pre-emergence herbicidal action against ALOMY; settings: scored visually after about 3 weeks, 100% = plants have died
How it was run: as §2

Avena fatua (AVEFA) = test: Pre-emergence herbicidal action against AVEFA; settings: visual scoring after about 3 weeks vs untreated controls
How it was run: as §2

Viola tricolor (VIOTR) = test: Post-emergence herbicidal action against VIOTR
How it was run: as §1

[7] = tested on: Abutilon theophrasti (ABUTH); test: Post-emergence herbicidal action against ABUTH; settings: visual rating about 3 weeks after treatment vs untreated controls (100% = plants have died, 0% = like control plants)
How it was run: as §1

[8] = 80 g/ha, visual rating about 3 weeks after treatment vs untreated controls (100% = plants have died, 0% = like control plants)
[9] = 320 g/ha, visual rating about 3 weeks after treatment

Compound | Post-emergence action against VERPE in % ([1]; 320 g/ha, VERPE) | Post-emergence action against VERPE in % ([1]; dosage 80 g/ha) | Pre-emergence action against POLCO in % ([2]; dosage 80 g/ha) | Pre-emergence action against POLCO in % ([2]; dosage 320 g/ha) | Post-emergence action against AMARE in % [3, 8] | Post-emergence action against AMARE in % [3, 9] | Post-emergence action against MATIN in % ([4]; dosage 320 g/ha) | Pre-emergence action against VERPE in % ([5]; dosage 80 g/ha) | Pre-emergence action against VERPE in % ([5]; dosage 320 g/ha) | Post-emergence action against SETVI in % (Setaria viridis (SETVI); dosage 80 g/ha) | Post-emergence action against SETVI in % (Setaria viridis (SETVI); dosage 320 g/ha) | Pre-emergence action against ALOMY ([6]; 80 g/ha) | Pre-emergence action against ALOMY ([6]; 320 g/ha) | Pre-emergence action against AVEFA in % (Avena fatua (AVEFA); 320 g/ha) | Post-emergence action against VIOTR in % (Viola tricolor (VIOTR); 320 g/ha) | Post-emergence action against ABUTH in % ([7]; 80 g/ha) | Post-emergence action against ABUTH in % ([7]; 320 g/ha) | Post-emergence action against MATIN in % ([4]; dosage 80 g/ha) | Pre-emergence action against AVEFA in % (Avena fatua (AVEFA); 80 g/ha) | Post-emergence action against VIOTR in % (Viola tricolor (VIOTR); 80 g/ha)
COC(=O)C(C)COC(=O)[C@@H](C)Oc1nn(-c2ccccn2)c(-c2cncc(F)c2)c1Cl (stereo partly shown) [Example I-198] | 80% | 80% | 90% | 90% | 80% | 90% | 80% | 90% | 100% | 80% | 80% | 80% | 90% | 90% | 80% | 80% | 80% | – | – | –
CCOC(=O)[C@@H](C)Oc1nn(-c2nc(F)ccc2F)c(-c2cncc(F)c2)c1Cl [Example I-208] | 80% | 80% | 90% | 90% | – | 80% | 80% | 90% | 100% | 80% | 80% | 90% | 100% | 90% | 80% | 80% | 90% | 80% | 80% | 80%
CCOC(=O)[C@@H](C)Oc1nn(-c2ccccn2)c(-c2cncc(F)c2)c1Cl [Example I-184] | 90% | 90% | 90% | 90% | 80% | 80% | 80% | 90% | 100% | 80% | 90% | 90% | 100% | 90% | 90% | 80% | 90% | – | 80% | 80%
COCCOC(=O)COc1nn(-c2ccccn2)c(-c2ccc(F)nc2)c1Br [Example I-96] | 90% | 80% | 90% | 90% | 80% | 80% | 80% | 90% | 90% | 90% | 90% | 80% | 100% | 90% | 90% | 90% | 90% | – | – | 90%
CCOC(=O)COc1nn(-c2ccccn2)c(-c2ccc(F)nc2)c1Cl [Example I-85] | 90% | 90% | – | 100% | 90% | 90% | 90% | 100% | 100% | 90% | 100% | 80% | 90% | 90% | 100% | 90% | 90% | 80% | – | 100%
COC(=O)COc1nn(-c2ncccc2F)c(-c2ccc(F)nc2)c1Br [Example I-07] | 90% | 90% | 90% | 100% | 90% | 90% | 100% | – | 100% | 90% | 90% | 90% | 100% | 90% | 90% | 80% | 90% | 90% | – | 90%
